What follows are molecules tested against EGFR (human) (UniProt P00533). Settings: mcf-7.
Sequence of EGFR (human) (P00533 whole entry, looked up): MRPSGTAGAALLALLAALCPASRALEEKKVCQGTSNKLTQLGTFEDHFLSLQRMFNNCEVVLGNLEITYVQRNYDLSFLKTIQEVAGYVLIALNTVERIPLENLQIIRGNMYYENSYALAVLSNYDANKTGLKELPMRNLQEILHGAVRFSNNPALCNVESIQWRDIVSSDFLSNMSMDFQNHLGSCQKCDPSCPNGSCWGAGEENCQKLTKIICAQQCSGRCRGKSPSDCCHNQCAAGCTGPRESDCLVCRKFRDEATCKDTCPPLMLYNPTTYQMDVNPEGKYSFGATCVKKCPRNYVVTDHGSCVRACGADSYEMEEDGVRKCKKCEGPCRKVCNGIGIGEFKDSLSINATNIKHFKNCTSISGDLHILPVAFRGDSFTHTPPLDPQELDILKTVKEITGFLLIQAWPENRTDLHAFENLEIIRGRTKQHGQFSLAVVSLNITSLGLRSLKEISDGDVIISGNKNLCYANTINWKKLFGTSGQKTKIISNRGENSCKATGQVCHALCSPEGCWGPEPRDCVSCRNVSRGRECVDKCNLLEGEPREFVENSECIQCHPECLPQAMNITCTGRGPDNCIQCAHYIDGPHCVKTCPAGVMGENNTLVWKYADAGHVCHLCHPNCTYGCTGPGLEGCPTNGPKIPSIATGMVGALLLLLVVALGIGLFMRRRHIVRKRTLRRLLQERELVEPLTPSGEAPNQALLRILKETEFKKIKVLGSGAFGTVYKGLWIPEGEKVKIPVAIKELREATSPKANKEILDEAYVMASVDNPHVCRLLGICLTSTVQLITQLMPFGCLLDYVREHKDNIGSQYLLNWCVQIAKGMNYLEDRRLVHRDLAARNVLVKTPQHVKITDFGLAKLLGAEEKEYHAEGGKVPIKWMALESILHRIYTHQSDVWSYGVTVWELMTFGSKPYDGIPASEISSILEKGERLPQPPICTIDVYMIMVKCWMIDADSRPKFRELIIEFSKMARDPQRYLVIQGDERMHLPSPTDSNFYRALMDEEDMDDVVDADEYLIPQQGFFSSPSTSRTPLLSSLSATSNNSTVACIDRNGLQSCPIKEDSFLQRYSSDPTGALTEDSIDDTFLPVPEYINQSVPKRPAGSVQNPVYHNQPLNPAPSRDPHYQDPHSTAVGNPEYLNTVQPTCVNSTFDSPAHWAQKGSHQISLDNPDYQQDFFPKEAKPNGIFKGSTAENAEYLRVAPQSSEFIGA
`CCOc1ccc2nc(C)cc(Nc3ccc(S(=O)(=O)NC(=N)N)cc3)c2c1` was tested, and the IC50 was 19.2 nM. Molecule `CCOc1ccc2nc(C)cc(Nc3cc(OC)c(OC)cc3C(=O)OC)c2c1` has an IC50 of 1.67 nM. `COc1cc2nc(Cl)nc(Nc3ccc(S(=O)(=O)Nc4nccs4)cc3)c2cc1OC` showed an IC50 of 0.13 nM. With `COc1cc2nc(Cl)nc(Nc3ccc(S(=O)(=O)Nc4cc(C)on4)cc3)c2cc1OC` the IC50 was 1.98 nM. `CCOc1ccc2nc(C)cc(Nc3cccc(O)c3)c2c1` showed an IC50 of 2.84 nM. Molecule `CCOc1ccc2nc(C)cc(Nc3ccc(S(=O)(=O)Nc4cc(C)on4)cc3)c2c1` has an IC50 of 13.8 nM. `CCOc1ccc2nc(C)cc(Nc3ccc(Cl)cc3Cl)c2c1` gave an IC50 of 4.38 nM. In the case of `CCOc1ccc2nc(C)cc(N3CCN(C(=O)c4ccco4)CC3)c2c1`, the IC50 is reported as 4.31 nM. For `COc1cc2nc(Cl)nc(N3CCN(S(=O)(=O)c4ccc(C)cc4)CC3)c2cc1OC`, the IC50 was 1.08 nM. For `CCOc1ccc2nc(C)cc(Nc3ccc(S(=O)(=O)Nc4ncccn4)cc3)c2c1`, the IC50 was 3.96 nM.

From the Kinase Knowledgebase extract (Sharma et al. 2016)
